Reference: patent publication US8173840B2, “Compounds with high therapeutic index” (Signature R&D Holdings, LLC, priority 2003, dated 2012)
≈ marks a conversion by molar mass, not a printed value. Where “and” joins values, the source holds several entries; their conditions need not be identical. Equal entries are not always repeated. Where two headings read alike, the source gives them in different places.

Tests used:
[1] = Solubility of propofol and its amino acid esters in water
Source text: For example, assume propofol is the drug and lysine is the amino acid.

[2] = system: albino mouse; assay: Anesthetic effect in male albino mice, righting reflex as index; settings: for dose response relation (statistical analysis): low, intermediate, high dose
Source text: However the doses of low, intermediate and high for different formulations and reference control were different.
The different doses for each formulation and reference control were selected based on the recommendation of Sponsor. All the doses were expressed as propofol molar equivalents.

[3] = system: rats; assay: Clotting time in rats, different date, time intervals and doses (Table 24); assay type: in vivo, rat
Source text: The following additional data were obtained, when the same drugs were compared in rats on a different date with different time intervals and doses: […]

[4] = system: Male albino rats; assay: Blood clotting time in albino rats, 2 hours after dosing; assay type: in vivo, rat; settings: for Mean Clotting Time (± S.D.): 20 mg/kg as aspirin, 2 hours (±10 minutes) after dosing; for mean blood clotting time with respect to positive control (statistics): after two hours
Experimental: Aspirin served as positive control. Male albino rats were exposed to aspirin and to 3 new formulations of amino acid derivatives of aspirin derivatives at one dose level of 20 mg/kg body weight. […]. The doses were expressed as aspirin molar equivalents.
The efficacy in terms of time required for the blood clotting time at the dose level of 20 mg/kg body weight for different formulations of amino acid derivatives of aspirin and aspirin (positive control) are presented below:
The data on the mean clotting time (MCT) of the animals, estimated 2 hours (±10 minutes) after dosing, at the dose level of 20 mg/kg body weight for the formulations of aspirin derivatives, vehicle control and positive control are presented below

[5] = Plasma aspirin and salicylic acid in human volunteers; assay type: in vivo
Source text: This is shown in FIG. 12 which depicts the concentration of salicyclic Acid in human plasma with respect to four volunteers who took Acetylsalicyclic Acid-L-Threonine Ester and two volunteers who took Aspirin.

[6] = system: fasted male albino rats (Wistar strain); assay: Gastric mucosa irritation of acetylsalicylic acid esters; assay type: in vivo, rat; settings: two doses, 100 and 200 mg/kg
Experimental: Aspirin served as a reference control. […] All the doses were expressed as aspirin molar equivalents. The doses used as well as the molar equivalents are presented below. The rats were fasted for a period of 18 to 22 hours before dosing. The test item was administered as a single dose by gavage. Three hours after drug administration, the animals were killed humanely by CO2 gas inhalation. The stomach was dissected out and observed for • the quantity of mucous exudate, • degree of hyperemia and thickening of stomach wall, • hemorrhagic spots (focal or diffuse), nature of hemorrhages (petechial or ecchymotic) along with the size and • perforations

[7] = system: albino rats; assay: Blood clotting time in albino rats, one hour after dosing; assay type: in vivo, rat; settings: for Mean Clotting Time (±S.D.), Low Dose: 1.0 mg/kg as aspirin; for Mean Clotting Time (±S.D.), Low Dose / Mean Clotting Time (±S.D.), Intermediate Dose / Mean Clotting Time (±S.D.), High Dose / statistical analysis of mean clotting time vs vehicle control: one hour after dosing; for Mean Clotting Time (±S.D.), Intermediate Dose: 4.0 mg/kg as aspirin; for Mean Clotting Time (±S.D.), High Dose: 10.0 mg/kg as aspirin; for effectiveness with respect to clotting time: one hour after administration
Experimental: The data on the mean clotting time (MCT) of the animals of low, intermediate and high dose groups of different formulations, vehicle control and positive control groups estimated one hour after dosing were presented below (Table 19):
Aspirin served as positive control. The study was conducted at three dose levels with the new formulations and positive control along with a vehicle control group.
The doses for the main study were selected based on the dose range finding experiments with acetylsalicylic acid. All the doses were expressed as aspirin molar equivalents. The doses used are presented below.

[8] = system: albino rats (Wistar strain); settings: rat, in vivo;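 note: one dose level only, compared with a vehicle control group, with doses stated as Aspirin molar equivalents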
Experimental: The study was conducted at one dose level only along with a vehicle control group as per the recommendation of the Sponsor. The test doses are expressed as Aspirin molar equivalents.

[9] = system: human volunteers; assay: Blood clotting time studies in human volunteers; assay type: in vivo; settings: for AVERAGE CLOTTING TIME: human volunteers, listed as ASA-T ESTER
Experimental: Several blood clotting time studies were performed on a limited number of human volunteers with Acetylsalicylic Acid-L-Threonine Ester. […] This plot was derived from the data in Table 29. The two Acetylsalicylic Acid-L-Threonine Ester blocks shown above correspond to two separate volunteers who took the test drug over a period of 5 days. The third volunteer took Bayer Aspirin for 5 days. As per FIG. 2, increase in clotting time occurred on the very first day of drug intake, and remained higher than Bayer ASA during the subsequent administrations.

[10] = system: albino mice (Swiss strain); assay: 14 day repeated dose toxicity study, intravenous route, propofol esters
Experimental: by conducting a 14 day repeated dose toxicity study through intravenous route using albino mice as test system.
Propofol and its derivatives above were administered to albino mice (Swiss strain), through intravenous route daily for a period of 14 days using sterile sodium chloride solution as vehicle. The study was conducted at one dose level only along with a vehicle control group as per the recommendation of the Sponsor.
The doses were selected as per the recommendation of the Sponsor. The test doses are expressed as Propofol molar equivalents.

[11] = cited from earlier work; for solubility in deionized water: deionized water at 25° C.
[12] = system: laboratory mice; settings: for Mean DAI: DSS coupled with drug from day 1, 10 mice per group; for performance in the model: DSS coupled with drug from day 1
Experimental: Percent animal body weight loss, stool consistency and occult blood at the end of the study will be taken into consideration to calculate Disease Activity Index (“DAI”) of each animal. The following scoring system outlined in Table 30 was for the percent body weight loss, stool consistency and occult blood:
The scores for each parameter for each mouse at the end of study are added together and divided by three (number of observations) to determine DAI. The mean group DAI is the determined. A score of 3 was assigned for any animal that died during the testing.
In this study, DSS administration is coupled with administration of either test or reference drug from day 1.

[13] = system: laboratory mice; assay: DSS induced ulcerative colitis in mice, disease treatment study (Disease Activity Index); assay type: in vivo, mouse; settings: for Mean DAI: treatment started after colitis symptoms, mean of 10 mice
Source text: The mean group DAI is the determined.
Much more dramatic results were obtained when the mice were initially treated with DSS to induce colitis. Once clear symptoms of colitis were seen, DSS was replaced by drinking water, and treatment started with test and reference drugs, including vehicle control. All results are mean of 10 mice.

In the case of CC(C)c1cccc(C(C)C)c1OC(=O)C(N)CCCCN.Cl.Cl (stereo in doubt) [Propofol Lysine Ester, 2(S),6-Diamino-hexanoic acid 2,6-diisopropyl-phenyl ester, dihydrochloride], the solubility in water [1] is reported as greater than 250 mg/mL, the “anesthetic effect, relative efficacy” value ([2]; Intermediate Dose) is reported as “did not show any anesthetic effect” and the “anesthetic effect, relative efficacy” value ([2]; Low Dose) is reported as “did not show any anesthetic effect”. The “efficacy in inducing anesthesia based on time required to regain the righting reflex (conclusion)” value ([2]; albino mice) was “relatively better efficacy” and the “dose response relation (statistical analysis)” value [2] was “significant improvement at 5% significance level in the relative efficacy for the high dose when compared to low dose group”.

In the case of CC(=O)Oc1ccccc1C(=O)O[C@H](C)[C@H](N)C(=O)O [2-O-Acetylsalicylic Acid (2S,3R)-(−)-threonine Ester], the “Clotting Time” value ([3]; 10 mg/kg 1 hr) is reported as 7.4 min, the “Clotting Time” value ([3]; 10 mg/kg 24 hr) is reported as 3.6 min and the “Clotting Time” value ([3]; 20 mg/kg 2 hr) is reported as 5.3 min. For the same compound, the “response in the rat blood clotting time” value ([3]; compared against the various amino acid esters) was “consistently a better response”, the “Mean Clotting Time (± S.D.)” value [4] was 5.3 ± 1.06 min and the “relative efficacy on clotting time” value ([4]; 2 hours after dosing) was “relatively better efficacy than the other two formulations”. For the same compound, the “mean blood clotting time with respect to positive control (statistics)” value [4] was “no significant difference at 5% significance level”, the “Salicylic Acid in human plasma (profile, words)” value [5] was “prolonged and sustained formation and disappearance of Salicylic acid” and the “Aspirin in blood / plasma” value ([5]; 325 mg dose, oral) was “No Aspirin was found in blood”. The “esters inducing evidence of irritation of gastric mucosa” value (shortened to “esters inducing evidence”) [6] was “none”, the “Mean Clotting Time (±S.D.), Low Dose” value [7] was 5.2 ± 1.14 min and the “Mean Clotting Time (±S.D.), Intermediate Dose” value [7] was 5.6 ± 0.84 min. For the same compound, the “Mean Clotting Time (±S.D.), High Dose” value [7] was 7.4 ± 0.97 min, the “effectiveness with respect to clotting time” value [7] was “as effective as acetylsalicylic acid” and the “statistical analysis of mean clotting time vs vehicle control” value [7] was “significant improvement at 5% significance level in the efficacy for the high dose”. For the same compound, the “Adrenals (Abs) organ weight, Significance[P < 0.05]” value [8] was “Decrease (Male)”, the “Alkaline Phosphatase, Significance [P < 0.05]” value [8] was “Increase (Female)” and the “All Blood Parameters, Significance [P < 0.05]” value [8] was “None”. For the same compound, the “All Clinical Chemistry, Significance [P < 0.05]” value [8] was “None(but two”, the “Blood Glucose, Significance [P < 0.05]” value [8] was “Decrease (Female)” and the “Cholesterol, Significance [P < 0.05]” value [8] was “Increase (Male)”. For the same compound, the “Creatinine, Significance [P < 0.05]” value [8] was “Decrease (Male)”, the Food intake [8] was “normal and comparable to the animals of vehicle control group” and the “Kidney (Abs) organ weight, Significance[P < 0.05]” value [8] was “Decrease (Male)”. The “Kidney (Rel) organ weight, Significance[P < 0.05]” value [8] was “Increase (Male)”, the “Platelet Count, Significance [P < 0.05]” value [8] was “Increase (Male)” and the “Spleen (Abs) organ weight, Significance[P < 0.05]” value [8] was “Decrease (Male)”. The “Total Protein, Significance [P < 0.05]” value [8] was “Increase (Female)”, the “histological sections of organs” value [8] was “did not show any histopathological changes” and the “AVERAGE CLOTTING TIME” value ([9]; 81 mg) was 5.2 min and 5.1 min. The “AVERAGE CLOTTING TIME” value ([9]; 325 mg) was 6.2 min and 6.0 min and the “effectiveness on clotting time” value ([9]; low dose of 80 mg, with baseline correction) was “as effective as 325 mg Bayer Aspirin”.

In the case of CC(=O)Oc1ccccc1C(=O)OC1CN[C@H](C(=O)O)C1 (stereo partly drawn) [2-O-Acetylsalicylic Acid (2S,4R)-4-hydroxyproline Ester], the “Clotting Time” value ([3]; 10 mg/kg 1 hr) is reported as 7.5 min, the “Clotting Time” value ([3]; 10 mg/kg 24 hr) is reported as 3.3 min and the “Clotting Time” value ([3]; 20 mg/kg 2 hr) is reported as 4.2 min. The “Mean Clotting Time (± S.D.)” value [4] was 4.2 ± 1.32 min, the “mean blood clotting time with respect to positive control (statistics)” value [4] was “no significant difference at 5% significance level” and the “esters inducing evidence” value [6] was “none”. For the same compound, the “Mean Clotting Time (±S.D.), Low Dose” value [7] was 6.1 ± 1.10 min, the “Mean Clotting Time (±S.D.), Intermediate Dose” value [7] was 5.7 ± 0.82 min and the “Mean Clotting Time (±S.D.), High Dose” value [7] was 7.5 ± 1.18 min. For the same compound, the “effectiveness with respect to clotting time” value [7] was “as effective as acetylsalicylic acid” and the “statistical analysis of mean clotting time vs vehicle control” value [7] was “significant improvement at 5% significance level in the efficacy for the high dose and low dose”.

For CC(=O)Oc1ccccc1C(=O)OC[C@H](N)C(=O)O [L-serine ester of acetylsalicylic acid, 2-O-Acetylsalicylic Acid (2S)-(+)-serine Ester], the “Clotting Time” value ([3]; 10 mg/kg 1 hr) was 6.9 min, the “Clotting Time” value ([3]; 10 mg/kg 24 hr) was 4.4 min and the “Clotting Time” value ([3]; 20 mg/kg 2 hr) was 3.8 min. The “Mean Clotting Time (± S.D.)” value [4] was 3.8 ± 0.92 min, the “esters inducing evidence” value [6] was “none” and the “Mean Clotting Time (±S.D.), Low Dose” value [7] was 5.7 ± 1.34 min. The “Mean Clotting Time (±S.D.), Intermediate Dose” value [7] was 6.8 ± 1.48 min, the “Mean Clotting Time (±S.D.), High Dose” value [7] was 6.9 ± 1.37 min and the “effectiveness with respect to clotting time” value [7] was “as effective as acetylsalicylic acid”.

In the case of CC(C)c1cccc(C(C)C)c1O [Propofol injection, 2,6-diisopropylphenol, reference compound], the “dose response relation (statistical analysis)” value [2] is reported as “statistically significant and clearly evident”, the feed intake ([10]; 14 days) is reported as “normal and comparable to that of vehicle control group” and the “animals exhibiting clinical symptoms of toxicity” value ([10]; IV daily 14 days) is reported as “None of the animals”. The “body weight gain” value ([10]; IV daily 14 days, compared to vehicle control) was “normal and comparable to that of vehicle control group of animals”.

In the case of O=C(O)[C@@H]1C[C@@H](O)CN1 [hydroxyproline], the “solubility in deionized water” value [11] is given as roughly 369 mg/mL (≈ 2810 mM).

In the case of NCCCC[C@H](N)C(=O)O [lysine], the solubility [11] is given as 700 mg/mL (≈ 4790 mM) and the “solubility in deionized water” value [11] is given as “approximately 700 g/L”.

In the case of “Cyclosporine A N-(L-lysine)-glycine ester, dihydrochloride trihydrate [Cyclosporine-GL]”, the “Mean DAI” value [12] is reported as 1.100 and the “Mean DAI” value [13] is reported as 0.532.

With “Cyclosporine A N-(L-proline)-glycine ester, hydrochloride [Cyclosporine-GP]” the “performance in the model” value [12] was “statistically significant performance compared to Cyclosporine A”, the “Mean DAI” value [12] was 1.062 and the “Mean DAI” value [13] was 0.066. The “statistical result vs Cyclosporine reference drug” value ([13]; treatment study) was “statistically significant results”.

With “Glycine Ester of Cyclosporine A [Cyclosporine-G]” the “performance in the model” value [12] was “didn't perform as expected”, the “Mean DAI” value [12] was 1.531 and the “Mean DAI” value [13] was 0.100. The “mice that died (out of 10)” value ([13]; treatment study) was “none died” and the “statistical result vs Cyclosporine reference drug” value ([13]; treatment study) was “statistically significant results”.
